Data on 6 compounds can be found in patent EP0017679B1, “Pyridylalkylpyrimidone compounds, process for preparing them and pharmaceutical compositions containing them” (SMITH KLINE & FRENCH LABORATORIES LIMITED, priority 1979, dated 1980).

Structures are written as SMILES.

This data set concerns mice. The experiment in a line: acute toxicity (LD50) after bolus intravenous administration. It is filed as in vivo. The following applies: ratio to the analogue lacking the 6-substituent (or 5- and 6-substituents) in the pyridyl group. An excerpt:
The compounds of Structure (2) have particularly good histamine H,- and H2- antagonist activity and are less acutely toxic in mice (when administered intravenously) than the corresponding compounds of Structure (2) in which R is hydrogen. This decrease in acute toxicity is in general is not accompanied by a reduction in histamine H1-antagonist activity or histamine H2-antagonist activity. […] (LD50 is the minimum dose which kills 50% of mice after bolus intravenous administration of the test compound).
With `COc1cccnc1CCCCNc1ncc(Cc2ccc(C)nc2)c(=O)[nH]1` [Example 1, 2-[4-(3-methoxy-2-pyridyl)butylamino]-5-(6-methyl-3-pyridylmethyl)-4-pyrimidone], the “LD50 value compared with the corresponding 5-(3-pyridylmethyl) analogue” value was “at least three”.
The result for `Cc1ccc(Cc2cnc(NCCSCc3nc[nH]c3C)[nH]c2=O)cn1` [Example 2, 2-[2-(5-methyl-4-imidazolylmethylthio)ethylamino]-5-(6-methyl-3-pyridylmethyl)-4-pyrimidone] reads “at least three”.
Next, `Cc1ccc(Cc2cnc(NCCCCc3ncccc3Cl)[nH]c2=O)cn1` [Example 7, 2-[4-(3-chloro-2-pyridyl)butylamino]-5-(6-methyl-3-pyridyImethyl)-4-pyrimidone]: “at least three”; `Cc1ccc(Cc2cnc(NCCSCc3nccs3)[nH]c2=O)cn1` [Example 9, 2-[2-(2-thiazolylmethylthio)ethylamino]-5-(6-methyl-3-pyridylmethyl)-4-pyrimidone]: “at least three”.
The result for `Cc1cc(Cc2cnc(NCCSCc3ncccc3Br)[nH]c2=O)cnc1C` [Example 11, 2-[2-(3-bromo-2-pyridylmethylthio)ethylamino]-5-(5,6-dimethyl-3-pyridylmethyl)-4-pyrimidone] reads “at least three”.
Regarding `COc1ccc(Cc2cnc(NCCSCc3nc[nH]c3C)[nH]c2=O)cn1` [Example 13, 2-[2-(5-methyl-4-imidazolylmethylthio)ethylamino]-5-(6-methoxy-3-pyridyImethyl)-4-pyrimidone], the “LD50 value compared with the corresponding 5-(3-pyridylmethyl) analogue” value was “at least three”.
